Experimental data as given in ChEMBL document CHEMBL5143521, “Identification of a selective BRD4 PROTAC with potent antiproliferative effects in AR-positive prostate cancer based on a dual BET/PLK1 inhibitor” (Eur J Med Chem, 2022).
Activity calls are given as the source filed them. The calls are words filed in the database; no cut-off is given here.

What was measured:
[1] = biological target: T1, Protein cereblon/Bromodomain-containing protein 4 (Homo sapiens) (UniProt O60885+Q96SW2); test: Protac activity at BRD4/CRBN in AR-positive human VCaP cells assessed as degradation of BRD4 by measuring downregulation of BRD4 expression level at 1 nM by Western blot analysis; format: cell-based; settings: time 2-48 hrs, TDE = time-dependent effect
[2] = biological target: T2, Serine/threonine-protein kinase PLK1 (Homo sapiens, UniProt P53350); test: Inhibition of recombinant full length human PLK1 using casein as substrate incubated for 40 mins in presence of [gamma-33P]-ATP by radiometric scintillation counting method
[3] = biological target: Bromodomain-containing protein 4 (Homo sapiens, UniProt O60885); test: Inhibition of BRD4 (unknown origin) by alpha-screen assay
[4] = biological target: T1, Protein cereblon/Bromodomain-containing protein 4 (Homo sapiens); test: Protac activity at BRD4/CRBN in human VCaP cells assessed as degradation of BRD4 by measuring downregulation of BRD4 expression level at 10 nM incubated for 24 hrs by immunoblotting analysis; format: cell-based
VCaP [5] = test: Inhibition of c-Myc expression level in human VCap cells at 10 nM incubated for 24 hrs by immunoblotting analysis; format: functional, cell-based
VCaP [6] = test: Antiproliferative activity against AR-positive human VCaP cells assessed as reduction in cell viability measured after 4 days by MTT assay; format: functional, cell-based; settings: 96 h
LNCaP [7] = test: Antiproliferative activity against AR-positive harmone sensitive human LNCaP cells assessed as reduction in cell viability measured after 4 days by MTT assay; format: functional, cell-based; settings: 96 h
CWR22R [8] = test: Antiproliferative activity against AR-positive human 22Rv1 cells assessed as reduction in cell viability at 100 to 300 nM incubated for 3 days followed by compound washout and measured after 8 days; format: functional; settings: dose 100-300 nM, time 3 day
[9] = biological target: T1, Protein cereblon/Bromodomain-containing protein 4 (Homo sapiens); test: Protac activity at BRD4/CRBN in AR-positive harmone sensitive human LNCaP cells assessed as degradation of BRD4 by measuring downregulation of BRD4 expression level at 1 nM by Western blot analysis; format: cell-based; settings: time 2-48 hrs, TDE = time-dependent effect
LNCaP [10] = test: Downregulation of c-Myc […] expression level in AR-positive harmone sensitive human LNCaP cells at 1 nM by Western blot analysis; format: functional, cell-based; settings: time 2-48 hrs, TDE = time-dependent effect
CWR22R [11] = test: Downregulation of c-Myc […] expression level in AR-positive human 22Rv1 cells at 1 nM by Western blot analysis; format: functional, cell-based; settings: time 2-48 hrs, TDE = time-dependent effect
VCaP [12] = test: Downregulation of c-Myc […] expression level in AR-positive human VCaP cells at 1 nM by Western blot analysis; format: functional, cell-based; settings: time 2-48 hrs, TDE = time-dependent effect
[13] = biological target: T1, Protein cereblon/Bromodomain-containing protein 4 (Homo sapiens); test: Protac activity at BRD4/CRBN in AR-positive human 22Rv1 cells assessed as degradation of BRD4 by measuring downregulation of BRD4 expression level measured after 24 hrs by Western blot analysis; format: cell-based; settings: dose 1-10000 nM, DDE = dose-dependent effect
CWR22R [14] = test: Downregulation of c-Myc […] expression level in AR-positive human 22Rv1 cells measured after 24 hrs by Western blot analysis; format: functional, cell-based; settings: dose 1-10000 nM, DDE = dose-dependent effect
VCaP [15] = test: Downregulation of c-Myc […] expression level in AR-positive human VCaP cells measured after 24 hrs by Western blot analysis; format: functional, cell-based; settings: dose 1-10000 nM, DDE = dose-dependent effect
[16] = biological target: T1, Protein cereblon/Bromodomain-containing protein 4 (Homo sapiens); test: Protac activity at BRD4/CRBN in AR-negative human castration resistant DU-145 cells assessed as degradation of BRD4 by measuring downregulation of BRD4 expression level measured after 24 hrs by Western blot analysis; format: cell-based; settings: dose 1-10000 nM, DDE = dose-dependent effect
VCaP [17] = test: Downregulation of c-Myc mRNA expression level in AR-positive human VCaP cells at 100 nM measured after 24 hrs by RT-qPCR analysis; format: functional, cell-based
[18] = biological target: T2, Serine/threonine-protein kinase PLK1; test: Inhibition of PLK1 in AR-positive human 22Rv1 cells at 100 nM measured after 3 hrs in presence of cycloheximide by Western blot analysis; format: cell-based
[19] = biological target: T1, Protein cereblon/Bromodomain-containing protein 4 (Homo sapiens); test: Protac activity at BRD4/CRBN in AR-positive human VCaP cells assessed as degradation of BRD4 at 1 uM measured after 24 hrs in presence of MG-132 by Western blot analysis; format: cell-based
[20] = biological target: T1, Protein cereblon/Bromodomain-containing protein 4 (Homo sapiens); test: Protac activity at BRD4/CRBN in AR-positive human VCaP cells assessed as degradation of BRD4 at 1 uM measured after 24 hrs in presence of MLN4924 by Western blot analysis; format: cell-based
VCaP [21] = test: Downregulation of AR protein expression in AR-positive human VCaP cells at 100 nM measured after 48 hrs by Western blot analysis; format: functional, cell-based
VCaP [22] = test: Downregulation of PSA protein expression in AR-positive human VCaP cells at 100 nM measured after 48 hrs by Western blot analysis; format: functional, cell-based
VCaP [23] = test: Downregulation of TMPRSS2 gene expression in AR-positive human VCaP cells at 100 nM measured after 24 hrs by RT-qPCR analysis; format: functional, cell-based
VCaP [24] = test: Downregulation of ERG gene expression in AR-positive human VCaP cells at 100 nM measured after 24 hrs by RT-qPCR analysis; format: functional, cell-based
VCaP [25] = test: Downregulation of FKBP5 gene expression in AR-positive human VCaP cells at 100 nM measured after 24 hrs by RT-qPCR analysis; format: functional, cell-based
VCaP [26] = test: Downregulation of BMPR1B gene expression in AR-positive human VCaP cells at 100 nM measured after 24 hrs by RT-qPCR analysis; format: functional, cell-based
CWR22R [27] = test: Induction of cell cycle arrest in AR-positive human 22Rv1 cells assessed as accumulation of cells at G0/G1 phase at 100 to 1000 nM measured after 72 hrs by flow cytometry analysis; format: functional, cell-based; settings: dose 100-1000 nM
CWR22R [28] = test: Induction of cell cycle arrest in AR-positive human 22Rv1 cells assessed as downregulation of CDK2 expression at 100 to 1000 nM measured after 72 hrs by Western blot analysis; format: functional, cell-based; settings: dose 100-1000 nM
CWR22R [29] = test: Induction of cell cycle arrest in AR-positive human 22Rv1 cells assessed as downregulation of CDK4 expression at 100 to 1000 nM measured after 72 hrs by Western blot analysis; format: functional, cell-based; settings: dose 100-1000 nM
CWR22R [30] = test: Induction of cell cycle arrest in AR-positive human 22Rv1 cells assessed as downregulation of CDK6 expression at 100 to 1000 nM measured after 72 hrs by Western blot analysis; format: functional, cell-based; settings: dose 100-1000 nM
CWR22R [31] = test: Induction of cell cycle arrest in AR-positive human 22Rv1 cells assessed as downregulation of cyclin E expression at 100 to 1000 nM measured after 72 hrs by Western blot analysis; format: functional, cell-based; settings: dose 100-1000 nM
CWR22R [32] = test: Induction of cell cycle arrest in AR-positive human 22Rv1 cells assessed as downregulation of cyclin B1 expression at 100 to 1000 nM measured after 72 hrs by Western blot analysis; format: functional, cell-based; settings: dose 100-1000 nM
CWR22R [33] = test: Induction of apoptosis in AR-positive human 22Rv1 cells assessed as increase in late apoptotic cells measured after 72 hrs by Annexin V-FITC/PI staining based flow cytometry method; format: functional, cell-based; settings: dose 100-1000 nM, DDE = dose-dependent effect
CWR22R [34] = test: Induction of apoptosis in AR-positive human 22Rv1 cells assessed as upregulation of cleaved caspase-3 level measured after 72 hrs by Annexin V-FITC/PI staining based flow cytometry method; format: functional, cell-based; settings: dose 100-1000 nM, DDE = dose-dependent effect
CWR22R [35] = test: Induction of apoptosis in AR-positive human 22Rv1 cells assessed as upregulation of cleaved PARP level measured after 72 hrs by Annexin V-FITC/PI staining based flow cytometry method; format: functional, cell-based; settings: dose 100-1000 nM, DDE = dose-dependent effect

T1 sequence (Q96SW2 whole entry, looked up, other chains not shown): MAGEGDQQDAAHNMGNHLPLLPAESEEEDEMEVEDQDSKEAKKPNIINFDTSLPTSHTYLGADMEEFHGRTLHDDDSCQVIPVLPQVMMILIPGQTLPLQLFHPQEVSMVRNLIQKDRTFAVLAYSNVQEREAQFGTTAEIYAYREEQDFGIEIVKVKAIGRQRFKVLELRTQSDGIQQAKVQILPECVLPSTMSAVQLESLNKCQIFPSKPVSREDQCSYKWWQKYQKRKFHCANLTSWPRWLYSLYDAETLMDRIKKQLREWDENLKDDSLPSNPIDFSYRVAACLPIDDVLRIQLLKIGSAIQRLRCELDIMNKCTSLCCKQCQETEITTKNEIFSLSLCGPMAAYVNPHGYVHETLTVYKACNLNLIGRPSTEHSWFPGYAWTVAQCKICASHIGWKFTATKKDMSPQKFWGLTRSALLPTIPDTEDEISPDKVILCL
T2 sequence (P53350 whole entry): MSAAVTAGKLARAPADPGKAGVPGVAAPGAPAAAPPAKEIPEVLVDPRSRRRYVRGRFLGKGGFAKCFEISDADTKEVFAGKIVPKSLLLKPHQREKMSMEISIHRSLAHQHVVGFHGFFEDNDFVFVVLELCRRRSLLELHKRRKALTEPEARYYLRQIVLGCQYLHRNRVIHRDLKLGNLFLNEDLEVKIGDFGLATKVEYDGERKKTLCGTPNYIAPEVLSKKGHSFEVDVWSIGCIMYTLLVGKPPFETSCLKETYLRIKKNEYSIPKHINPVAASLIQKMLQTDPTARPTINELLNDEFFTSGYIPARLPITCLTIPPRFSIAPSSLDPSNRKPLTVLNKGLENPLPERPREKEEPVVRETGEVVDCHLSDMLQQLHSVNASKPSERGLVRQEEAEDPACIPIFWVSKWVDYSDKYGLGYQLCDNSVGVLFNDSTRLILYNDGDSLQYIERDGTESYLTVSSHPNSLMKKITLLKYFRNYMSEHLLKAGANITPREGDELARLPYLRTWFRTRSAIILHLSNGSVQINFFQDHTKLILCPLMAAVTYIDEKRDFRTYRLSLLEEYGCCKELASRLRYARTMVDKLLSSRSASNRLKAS

What does the source list for CC[C@@H]1c2nnc(C)n2-c2cnc(Nc3ccc(C(=O)NC4CCN(C(=O)COc5cccc6c5C(=O)N(C5CCC(=O)NC5=O)C6=O)CC4)cc3OC)nc2N1CC1CCCCC1 (stereo not given in full)?
Activity [1]: Tde; IC50 [2]: 985 nM; IC50 [3]: 254 nM; Activity [4]: Active; inhibition (VCaP [5]): Active; IC50 (VCaP [6]): 16 nM; IC50 (LNCaP [7]): 21 nM; inhibition (INH) (CWR22R [8]): 100%; Activity [9]: Tde; Activity (LNCaP [10]): Tde; Activity (CWR22R [11]): Tde; Activity (VCaP [12]): Tde; Activity [13]: Dde; Activity (CWR22R [14]): Dde; Activity (VCaP [15]): Dde; Activity [16]: Dde; Activity (VCaP [17]): Active; inhibition [18]: Active; Activity [19]: Active; Activity [20]: Active; Activity (VCaP [21]): Active; Activity (VCaP [22]): Active; Activity (VCaP [23]): Active; Activity (VCaP [24]): Active; Activity (VCaP [25]): Active; Activity (VCaP [26]): Active; Activity (CWR22R [27]): Active; Activity (CWR22R [28]): Active; Activity (CWR22R [29]): Active; Activity (CWR22R [30]): Active; Activity (CWR22R [31]): Active; Activity (CWR22R [32]): Active; Activity (CWR22R [33]): Dde; Activity (CWR22R [34]): Dde; Activity (CWR22R [35]): Dde
